Holding throughout (format): biochemical
The target in one test is T1, SHV-5 (Klebsiella pneumoniae, UniProt P0A3M1).
T1 construct: made in house; host or cells: E. coli BL21(DE3)
Nature of the test: β-lactamase enzyme inhibition, SHV-5. As for the experimental part: (§1) For SHV-5, Kpc-2, p99AmpC and OXA-1 β-lactamases, E. coli BL21(DE3) bacterial cells carrying expression plasmids (expressed as native untagged proteins) for the individual β-lactamases were grown in 1 L of Superbroth (Teknova Inc. Hollister, Calif.) supplemented with 100 μg/mlkanamycin selection and 1×5052 (0.5% glycerol, 0.05% glucose and 0.2% α-lactose) at 35° C. for 18-20 hours. Cells were harvested by centrifugation (4,000×g, 4° C., 20 min), resuspended in 50 ml of 10 mM HEPES pH 7.5 ( 1/20 of the initial volume). The cells were lysed by sonication (5 pulses of 45 seconds) at 45 W on ice. The lysates were clarified by centrifugation at 10,000×g for 40 minutes at 4° C. Samples were diluted 5-fold in 50 mM sodium acetate pH 5.0, stored overnight at 4° C., after which they were centrifuged at 10,000×g for 30 minutes to clarify, and filtered through 0.45 μm filters. The samples were loaded onto a 5 ml Capto S sepharose cation exchange column (GE Healthcare) pre-equilibrated with 50 mM sodium acetate pH 5.0. The column was washed with 5 column volumes of 50 mM sodium acetate pH 5.0 to wash out unbound protein and a linear gradient of NaCl (0 to 500 mM) was used to elute the protein (over 16 CV) from the column. Fractions were assayed for β-lactamase activity using Centa (Calbiochem, Gibbstown, N.J.) or Nitrocefin (EMD Millipore chemicals, Darmstadt, Germany) as a reporter β-lactamase substrate for activity in the isolated fractions. Active fractions were pooled, concentrated and further purified by gel filtration chromatography on a Superdex 75 prep grade gel filtration column (GE Healthcare, Piscataway, N.J.) pre-equilibrated in 50 mM Hepes pH 7.5, 150 mM NaCl. Active fractions were pooled concentrated, quantitated by BCA protein determination (Thermo Scientific, Rockford, Ill.), dialyzed into PBS and frozen at −80° C. in 20% glycerol until use.
(§2) An equal volume of diluted enzyme stock was added, and the plates were incubated at 37° C. for 15 min. Nitrocefin was used as substrate for p99 AmpC, VIM-2 and OXA-1 and dispensed into each well at a final concentration of 100 μM. Absorbance at 486 nm was immediately monitored for 10 min using a Biotek Powerwave XS2 microplate spectrophotometer using the GENS software package (Biotek Instruments, Winooski Vt.). In an analogous fashion, imipenem was used as substrate for Kpc-2 and Cefotaxime was used for SHV-5, while changes in absorbance upon hydrolysis of the β-lactam ring were monitored at 300 nm and 260 nm respectively in UV-transparent 96-well microtiter assay plates. Maximum rates of hydrolysis were compared to those in control wells (without inhibitors), and percentages of enzyme inhibition were calculated for each concentration of inhibitor. The concentration of inhibitor needed to reduce the initial rate of hydrolysis of substrate by 50% (IC50) was calculated as the residual activity of β-lactamase at 486 nm using GraFit version 7 kinetics software package (Erithacus Software, Surrey, UK).
(§3) Using the methodology described above, examples of the current invention were evaluated for their ability to inhibit β-lactamase enzymes from all four Ambler classifications (A through D). […] NT=Not tested.

The target of another test is T2, KPC-2 (Klebsiella pneumoniae, UniProt Q9F663).
T2 construct: made in house; host or cells: E. coli BL21(DE3)
Nature of the test: β-lactamase enzyme inhibition, KPC-2. The conditions noted are these: substrate imipenem, 300 nm; read-out: Class A KPC-2 IC50. As for the experimental part: as §1, §2, §3

For the next test, the target named is T3, VIM-2 (Escherichia coli, UniProt Q5U7L7).
T3 construct: made in house; host or cells: E. coli BL21(DE3)
Nature of the test: β-lactamase enzyme inhibition, VIM-2. The following applies: substrate Nitrocefin 100 μM, 486 nm; read-out: Class B VIM-2 IC50. As to the method: For Vim-2 metallo β-lactamase, the procedure was identical with the following exceptions, first the protein was not pH adjusted to pH 5 with 50 mM sodium acetate, second, the chromatography step was changed to a 5 ml Q sepharose anion exchange column pre-equilibrated with 50 mM Hepes pH 7.5, and elution of the protein was achieved by a linear gradient of NaCl (0-600 mM). Finally, the VIM-2 purification required a second run (3rd step) on the Q sepharose anion exchange column to achieve acceptable purity (>90%).
as §2, §3

The target in another test is T4, p99 AmpC (Enterobacter cloacae, UniProt P05364).
T4 construct: made in house; host or cells: E. coli BL21(DE3)
Nature of the test: β-lactamase enzyme inhibition, p99 AmpC. As to the method: as §1, §2, §3

Another test concerns the target T5, OXA-1 (Escherichia coli, UniProt P13661).
T5 construct: made in house; host or cells: E. coli BL21(DE3)
Kind of test: β-lactamase enzyme inhibition, OXA-1. The following applies: substrate Nitrocefin 100 μM, 486 nm; read-out: Class D OXA-1 IC50. As to the method:
as §1, §2, §3

Bounds are passed on as bounds.

Turning to `NCC1CCC(=CC(=O)N[C@H]2Cc3cccc(C(=O)O)c3OB2O)CC1` (stereo partly drawn) [Example 11, (3R)-3-(2-(4-(aminomethyl)cyclohexylidene)acetamido)-2-hydroxy-3,4-dihydro-2H-benzo[e][1,2]oxaborinine-8-carboxylic acid], the IC50 is 100 to 1000 nM against SHV-5; 1000 to 10000 nM on KPC-2; 1000 to 10000 nM at VIM-2; below 100 nM at p99 AmpC; 100 to 1000 nM on OXA-1.
Regarding `NCC1CCC(CC(=O)N[C@H]2Cc3cccc(C(=O)O)c3OB2O)(C[N+](=O)[O-])CC1` (stereo partly drawn) [Example 12, (R)-3-(2-(4-(aminomethyl)-1-(nitromethyl)cyclohexyl)acetamido)-2-hydroxy-3,4-dihydro-2H-benzo[e][1,2]oxaborinine-8-carboxylic acid], the IC50 against SHV-5 is 100 to 1000 nM; on KPC-2 it was 100 to 1000 nM; on VIM-2, 1000 to 10000 nM; on p99 AmpC it was below 100 nM; at OXA-1, 100 to 1000 nM.
Regarding `NC[C@H](N)C(=O)N[C@H]1CC[C@H](CC(=O)N[C@H]2Cc3cccc(C(=O)O)c3OB2O)CC1` [Example 13, (R)-3-(2-(trans-4-((S)-2,3-diaminopropanamido)cyclohexyl)acetamido)-2-hydroxy-3,4-dihydro-2H-benzo[e][1,2]oxaborinine-8-carboxylic acid], the IC50 at SHV-5 is below 100 nM; at KPC-2 it was below 100 nM; at VIM-2, 100 to 1000 nM; at p99 AmpC it was below 100 nM; at OXA-1, below 100 nM.
Regarding `CN(C)[C@H]1CC[C@H](CC(=O)N[C@H]2Cc3cccc(C(=O)O)c3OB2O)CC1` [Example 14, (R)-3-(2-(trans-4-(dimethylamino)cyclohexyl)acetamido)-2-hydroxy-3,4-dihydro-2H-benzo[e][1,2]oxaborinine-8-carboxylic acid], the IC50 was below 100 nM against SHV-5; below 100 nM at KPC-2; 100 to 1000 nM on VIM-2; below 100 nM against p99 AmpC; below 100 nM at OXA-1.
On to `NCCN[C@H]1CC[C@H](CC(=O)N[C@H]2Cc3cccc(C(=O)O)c3OB2O)CC1` [Example 15, (R)-3-(2-(trans-4-(2-aminoethylamino)cyclohexyl)acetamido)-2-hydroxy-3,4-dihydro-2H-benzo[e][1,2]oxaborinine-8-carboxylic acid], for which the IC50 against SHV-5 is below 100 nM; on KPC-2, below 100 nM; at VIM-2, below 100 nM; at p99 AmpC, below 100 nM; at OXA-1, 100 to 1000 nM.
Turning to `O=C(C[C@H]1CC[C@H](N2CCNCC2)CC1)N[C@H]1Cc2cccc(C(=O)O)c2OB1O` [Example 16, (R)-2-hydroxy-3-(2-(trans-4-(piperazin-1-yl)cyclohexyl)acetamido)-3,4-dihydro-2H-benzo[e][1,2]oxaborinine-8-carboxylic acid], the IC50 at SHV-5 was below 100 nM; at KPC-2 it was below 100 nM; on VIM-2, 1000 to 10000 nM; against p99 AmpC, below 100 nM; at OXA-1 it was below 100 nM.
`O=C(C[C@H]1CC[C@@H](N2CCNCC2)CC1)N[C@H]1Cc2cccc(C(=O)O)c2OB1O` [Example 17, (R)-2-hydroxy-3-(2-(cis-4-(piperazin-1-yl)cyclohexyl)acetamido)-3,4-dihydro-2H-benzo[e][1,2]oxaborinine-8-carboxylic acid]: the IC50 against SHV-5 is 100 to 1000 nM; at KPC-2, below 100 nM; at VIM-2 it was 1000 to 10000 nM; against p99 AmpC, below 100 nM; on OXA-1, 100 to 1000 nM.
Turning to `N[C@H]1CC[C@H](CCC(=O)N[C@H]2Cc3cccc(C(=O)O)c3OB2O)CC1` [Example 21, (R)-3-(3-(trans-4-aminocyclohexyl)propanamido)-2-hydroxy-3,4-dihydro-2H-benzo[e][1,2]oxaborinine-8-carboxylic acid], the IC50 against SHV-5 was below 100 nM; at KPC-2 it was below 100 nM; at VIM-2 it was 1000 to 10000 nM; on p99 AmpC it was below 100 nM; at OXA-1, below 100 nM.
Regarding `N=C(N)N[C@H]1CC[C@H](CCC(=O)N[C@H]2Cc3cccc(C(=O)O)c3OB2O)CC1` [Example 22, (R)-3-(3-(trans-4-guanidinocyclohexyl)propanamido)-2-hydroxy-3,4-dihydro-2H-benzo[e][1,2]oxaborinine-8-carboxylic acid], the IC50 is below 100 nM against SHV-5; below 100 nM at KPC-2; 100 to 1000 nM on VIM-2; below 100 nM against p99 AmpC; below 100 nM on OXA-1.
As to `CN(C)CCN(C)[C@H]1CC[C@H](CC(=O)N[C@H]2Cc3cccc(C(=O)O)c3OB2O)CC1` [Example 23, (R)-3-(2-(trans-4-((2-(dimethylamino)ethyl)(methyl)amino)cyclohexyl)acetamido)-2-hydroxy-3,4-dihydro-2H-benzo[e][1,2]oxaborinine-8-carboxylic acid], the IC50 at SHV-5 is below 100 nM; on KPC-2 it was below 100 nM; at VIM-2, 100 to 1000 nM; at p99 AmpC, below 100 nM; at OXA-1 it was 100 to 1000 nM.
On to `N=C(N)NCCN[C@H]1CC[C@H](CC(=O)N[C@H]2Cc3cccc(C(=O)O)c3OB2O)CC1` [Example 25, (R)-3-(2-(trans-4-(2-guanidinoethylamino)cyclohexyl)acetamido)-2-hydroxy-3,4-dihydro-2H-benzo[e][1,2]oxaborinine-8-carboxylic acid], for which the IC50 against SHV-5, on KPC-2, at VIM-2, against p99 AmpC and at OXA-1 was below 100 nM throughout.
Consider `O=C(C[C@H]1CC[C@H](NCCO)CC1)N[C@H]1Cc2cccc(C(=O)O)c2OB1O` [Example 26, (R)-2-hydroxy-3-(2-(trans-4-(2-hydroxyethylamino)cyclohexyl)acetamido)-3,4-dihydro-2H-benzo[e][1,2]oxaborinine-8-carboxylic acid], for which the IC50 was below 100 nM at SHV-5; below 100 nM at KPC-2; 1000 to 10000 nM on VIM-2; below 100 nM on p99 AmpC; 100 to 1000 nM on OXA-1.
Regarding `O=C(C[C@H]1CC[C@H](NCc2cccnc2)CC1)N[C@H]1Cc2cccc(C(=O)O)c2OB1O` [Example 27, (R)-2-hydroxy-3-(2-(trans-4-(pyridin-3-ylmethylamino)cyclohexyl)acetamido)-3,4-dihydro-2H-benzo[e][1,2]oxaborinine-8-carboxylic acid], the IC50 against SHV-5 was below 100 nM; at KPC-2 it was below 100 nM; at VIM-2 it was 100 to 1000 nM; against p99 AmpC, below 100 nM; on OXA-1 it was below 100 nM.
`O=C(O)CN[C@H]1CC[C@H](CC(=O)N[C@H]2Cc3cccc(C(=O)O)c3OB2O)CC1` [Example 28, (R)-3-(2-(trans-4-(carboxymethylamino)cyclohexyl)acetamido)-2-hydroxy-3,4-dihydro-2H-benzo[e][1,2]oxaborinine-8-carboxylic acid]: the IC50 is below 100 nM at SHV-5; below 100 nM on KPC-2; 1000 to 10000 nM at VIM-2; below 100 nM at p99 AmpC; 100 to 1000 nM at OXA-1.

The record behind these values is patent US8912169B2, “Beta-lactamase inhibitors” (VenatoRx Pharmaceuticals, Inc., priority 2012, dated 2014).
